{"source": "patent US7612211B2", "about": "“Benzimidazole TRPV1 inhibitors” (Janssen Pharmaceutica N.V., priority 2006, dated 2009)", "key": {"[1]": {"molecular_target": "T1, hTRPV1 (Homo sapiens, UniProt Q8NER1)", "T1 construct": "expressed in transfected cells; host or cells: HEK293", "T1 sequence (Q8NER1 whole entry)": "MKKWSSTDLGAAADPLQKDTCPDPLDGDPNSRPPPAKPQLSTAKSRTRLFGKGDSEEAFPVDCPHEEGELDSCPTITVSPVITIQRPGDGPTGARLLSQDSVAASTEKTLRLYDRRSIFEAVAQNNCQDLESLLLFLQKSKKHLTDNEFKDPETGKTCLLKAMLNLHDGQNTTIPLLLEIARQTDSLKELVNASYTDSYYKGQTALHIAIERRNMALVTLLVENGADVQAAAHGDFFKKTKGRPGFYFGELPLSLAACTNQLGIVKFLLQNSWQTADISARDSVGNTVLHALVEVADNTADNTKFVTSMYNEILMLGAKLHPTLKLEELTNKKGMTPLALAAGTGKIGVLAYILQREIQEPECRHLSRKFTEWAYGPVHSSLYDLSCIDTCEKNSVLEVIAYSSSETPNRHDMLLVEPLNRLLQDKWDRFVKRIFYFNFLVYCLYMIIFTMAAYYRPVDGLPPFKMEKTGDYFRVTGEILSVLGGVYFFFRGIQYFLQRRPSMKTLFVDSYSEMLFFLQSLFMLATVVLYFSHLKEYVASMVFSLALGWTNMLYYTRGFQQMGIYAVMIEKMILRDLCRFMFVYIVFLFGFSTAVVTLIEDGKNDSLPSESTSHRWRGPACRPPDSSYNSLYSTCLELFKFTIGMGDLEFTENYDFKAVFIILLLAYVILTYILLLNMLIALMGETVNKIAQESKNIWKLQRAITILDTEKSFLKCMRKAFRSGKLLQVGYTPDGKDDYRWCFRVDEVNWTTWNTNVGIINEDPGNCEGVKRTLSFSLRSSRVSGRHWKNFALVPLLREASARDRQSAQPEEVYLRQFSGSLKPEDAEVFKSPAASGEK", "assay": "Human TRPV1 (hTRPV1) functional assay, FLIPR intracellular Ca2+, capsaicin challenge", "type": "cell-based", "conditions": "HEK293 cells expressing hTRPV1, capsaicin 0.030 μM challenge", "how_it_was_run": "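HEK293 cells expressing the channel, loaded with Calcium 3 dye, were exposed to compounds for 5 min before capsaicin 0.030 μM (~80% maximal). FLIPR Ca2+ read; IC50/EC50 from quadruplicate concentration-response, or percent inhibition at 0.5 μm or 0.2 μm.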"}, "[2]": {"molecular_target": "T1, hTRPV1", "assay": "Human TRPV1 [3H]RTX binding assay (membranes of transfected HEK293 cells)", "conditions": "inhibition of [3H]RTX binding", "description": "Compounds of the present invention were tested for their ability to inhibit the binding of [^3H] RTX to hTRPV1 receptors in a [^3H] RTX binding assay as previously described (See, PCT International Application WO02/33411A1 and Elfrida G. R. et al., J. Pharmacol. Exp. Ther., 2002, 300(1): 9-17.)\nHEK293 cells were transfected with hTRPV1 vanilloid receptors and washed with Hank's balanced Salt Solution, dissociated with cell dissociation buffer (Sigma), and then centrifuged at 1000×g for 5 min. Cell pellets were homogenized in cold 20 mM HEPES buffer (pH=7.4), containing 5.8 mM NaCl, 320 mM sucrose, 2 mM MgCl2, 0.75 CaCl2 and 5 mM KCl and centrifuged at 1000×g for 15 min. The resultant supernatant was then centrifuged at 40,000×g for 15 min. The pelleted membranes were stored in a freezer at −80° C.\nApproximately 120 μg protein/mL from membranes were incubated with indicated concentrations of [^3H]RTX in 0.5 mL of the HEPES buffer (pH 7.4) containing 0.25 mg/mL fatty acid-free bovine serum albumin at 37° C. for 60 min. […] Bound radioactivity was quantified by scintillation counting. Non-specific binding was measured in the presence of 200 nM unlabeled RTX.\nData were calculated according to the equation: % inhibition=100%×[(total binding−binding)/(total binding−non specific binding)]. Ki values were calculated using a Prism program."}, "[3]": {"tested_on": "male Sprague-Dawley rats", "assay": "CFA-induced inflammatory pain, reversal of thermal hyperalgesia (radiant heat paw stimulator)", "type": "in vivo", "conditions": "Rattus norvegicus, po, 10 mg/kg orally, 24 h after CFA, maximal during the 300 min test, read-out: % Reversal (maximal percent reversal of hypersensitivity)", "description": "Compounds of the present invention were tested in animal models of inflammation and inflammatory pain. To assess the ability of test compounds to reverse thermal hyperalgesia, baseline response latencies on a radiant heat (RH) paw stimulator were obtained before an intraplantar injection of 100 μL (1 μg/μL) CFA (1:1 CFA:saline) in male Sprague-Dawley rats. Only withdrawal responses that were quick hind paw movements (with or without licking of the hind paw) were recorded. Paw movements associated with locomotion or a shifting of weight were not considered a withdrawal response. The stimulus intensity that produced 10-15 sec baseline withdrawal latencies was used and a maximum cutoff of 20 sec was imposed. Hypersensitivity was evaluated 24 h after CFA.\nFollowing the post-inflammogen latency assessment, rats were orally dosed (2.5 mL/kg) with test compound (10 mg/kg) or vehicle (20% hydroxypropyl beta cyclodextran). To determine the time of peak effect, latencies were redetermined 30, 60, 100, 180 and 300 min after compound administration.\nData are presented as the maximal percent reversal of hypersensitivity obtained during the 300 min test, which was calculated for each animal according to the formula: % reversal=100%×(treatment response−post-inflammogen response)/(pre-inflammogen response−post-inflammogen response)"}}}
{"molecule": "NS(=O)(=O)c1ccccc1-c1ccc2[nH]c(COc3ccc(C(F)(F)F)cc3)nc2c1", "note": "[Cpd 1, 2-[2-(4-trifluoromethyl-phenoxymethyl)-1H-benzoimidazol-5-yl]-benzenesulfonamide]", "values": [{"measurement": "IC50", "setting": "[1]; derived from a variety of test concentrations, read-out: IC50 value (symbol c)", "value": 3, "unit": "nM"}, {"measurement": "inhibition at 0.5 µM", "setting": "[1]; test concentration of 0.5 μm, read-out: percent inhibition (symbol a)", "value": 100, "unit": "%"}, {"measurement": "Ki", "setting": "[2]", "value": 2.7, "unit": "nM"}, {"measurement": "inhibition in vivo at 10 mg/kg", "setting": "[3]", "value": 85, "unit": "%"}]}
